Laboratory results as given in patent US6737383B1, “Herbicidal oxadiazolidines” (priority 1999, dated 2004).

Columns and labels:
blackgrass = experiment: Test B pre/postemergence blackgrass; format: in vivo, Alopecurus myosuroides
In short: (§1)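 Test chemicals in a non-phytotoxic solvent mixture with surfactant were sprayed preemergence onto planted seeds and postemergence onto plants 2 to 18 cm tall (1- to 4-leaf stage). After twelve to sixteen days in a greenhouse, injury was visually rated against untreated controls from 0 (no effect) to 10 (complete control).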

duck salad = experiment: Test B flood test duck salad; format: in vivo, Heteranthera limosa
In short: (§2)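 Flood test on plants grown to the 2-leaf stage; treated plants kept in greenhouse twelve to sixteen days, then visually rated against controls on a 0 (no effect) to 10 (complete control) scale.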

soybean = experiment: Test B pre/postemergence soybean; format: in vivo, Glycine max
In short: as §1

velvetleaf = experiment: Test B pre/postemergence velvetleaf; format: in vivo, Abutilon theophrasti
In short: as §1

bamyardgrass = experiment: Test B flood test barnyardgrass; format: in vivo, Echinochloa crus-galli
In short: as §2

giant foxtail = experiment: Test B pre/postemergence giant foxtail; format: in vivo, Setaria faberii
In short: as §1

surinam grass = experiment: Test B pre/postemergence surinam grass; format: in vivo, Brachiaria decumbens
In short: as §1

purple nutsedge = experiment: Test B pre/postemergence purple nutsedge; format: in vivo, Cyperus rotundus
In short: as §1

bedstraw = experiment: Test B pre/postemergence bedstraw; format: in vivo, Galium aparine
In short: as §1

corn = experiment: Test B pre/postemergence corn; format: in vivo, Zea mays
In short: as §1

sugar beet = experiment: Test B pre/postemergence sugar beet; format: in vivo, Beta vulgaris
In short: as §1

pigweed = experiment: Test B pre/postemergence pigweed; format: in vivo, Amaranthus retroflexus
In short: as §1

rape = experiment: Test B pre/postemergence rape; format: in vivo, Brassica napus
In short: as §1

smallflower flatsedge = experiment: Test B flood test smallflower flatsedge; format: in vivo, Cyperus difformis
In short: as §2

rice = experiment: Test B flood test rice; format: in vivo, Oryza sativa
In short: as §2

morningglory = experiment: Test B pre/postemergence morningglory; format: in vivo, Ipomoea hederacea
In short: as §1

[1] = Postemergence, Rate 125 g/ha, scale of 0 to 10 where 0 is no effect and 10 is complete control
[2] = Preemergence, Rate 62 g/ha, scale 0 to 10 (0 no effect, 10 complete control)
[3] = Preemergence, Rate 125 g/ha, 0 is no effect, 10 is complete control
[4] = Preemergence, Rate 500 g/ha, scale 0 to 10 (0 no effect, 10 complete control)
[5] = Rate 62 g/ha, Postemergence, scale of 0 to 10 where 0 is no effect and 10 is complete control
[6] = Rate 250 g/ha, Postemergence, scale 0 to 10, 0 is no effect, 10 is complete control
[7] = Rate 500 g/ha, Postemergence, scale 0 to 10
[8] = Postemergence (flood test species), Rate 125 g/ha, scale of 0 to 10 where 0 is no effect and 10 is complete control
[9] = Rate 62 g/ha, Postemergence section, flood test species, scale of 0 to 10 where 0 is no effect and 10 is complete control
[10] = Rate 250 g/ha, Postemergence (flood test), scale 0 to 10, 0 is no effect, 10 is complete control
[11] = Rate 250 g/ha, headed Pre-emergence (flood test species), scale 0 to 10 (0 no effect, 10 complete control)
[12] = Rate 500 g/ha, headed Pre-emergence (flood test species), scale 0 to 10 (0 no effect, 10 complete control)
[13] = Rate 500 g/ha, listed under Postemergence (flood test species), scale 0 to 10
[14] = Rate 1000 g/ha, Pre-emergence (as headed), scale 0 to 10
[15] = Rate 2000 g/ha, Pre-emergence (as headed), scale 0 to 10
[16] = Preemergence, Rate 250 g/ha, scale 0 to 10, 0 is no effect, 10 is complete control
[17] = Postemergence, Rate 62 g/ha, scale 0 to 10, 0 is no effect, 10 is complete control

Cc1cnn(C)c1-n1c(=O)on(C(=O)N(c2ccc(F)cc2)C(C)C)c1=O [Compound 125]
2: Plant response rating, Morningglory (morningglory; [6]) | Morningglory plant response rating (morningglory; [7])
4: Soybean plant response rating (soybean; [1]) | Plant response rating, Soybean (soybean; [6]) | Soybean plant response rating (soybean; [7])
0: Blackgrass plant response rating (blackgrass; [1]) | Blackgrass plant response rating (blackgrass; [2]) | Blackgrass plant response rating (0 to 10 scale) (blackgrass; [3]) | Blackgrass plant response rating (blackgrass; [4]) | Blackgrass plant response rating (blackgrass; [5]) | Plant response rating, Blackgrass (blackgrass; [6]) | Blackgrass plant response rating (blackgrass; [7]) | Ducksalad plant response rating (duck salad; [8]) | Ducksalad plant response rating (duck salad; [9]) | Plant response rating, Ducksalad (duck salad; [10]) | Ducksalad plant response rating (duck salad; [11]) | Plant response rating, Ducksalad (duck salad; [12]) | Ducksalad plant response rating (duck salad; [13]) | Ducksalad plant response rating (duck salad; [14]) | Ducksalad plant response rating (duck salad; [15]) | Soybean plant response rating (soybean; [2]) | Soybean plant response rating (0 to 10 scale) (soybean; [3]) | Soybean plant response rating (soybean; [16]) | Soybean plant response rating (soybean; [4]) | Soybean plant response rating (soybean; [5]) | Velvetleaf plant response rating (velvetleaf; [1]) | Velvetleaf plant response rating (velvetleaf; [2]) | Velvetleaf plant response rating (0 to 10 scale) (velvetleaf; [3]) | Velvetleaf plant response rating (velvetleaf; [16]) | Velvetleaf plant response rating (velvetleaf; [4]) | Velvetleaf plant response rating (velvetleaf; [5]) | Plant response rating, Velvetleaf (velvetleaf; [6]) | Velvetleaf plant response rating (velvetleaf; [7]) | Barnyardgrass plant response rating (bamyardgrass; [8]) | Barnyardgrass plant response rating (bamyardgrass; [17]) | Plant response rating, Barnyardgrass (bamyardgrass; [10]) | Barnyardgrass plant response rating (bamyardgrass; [11]) | Plant response rating, Barnyardgrass (bamyardgrass; [12]) | Barnyardgrass plant response rating (bamyardgrass; Rate 500 g/ha, listed under Postemergence (flood test species), scale 0 to 10, 0 no effect, 10 complete control) | Barnyardgrass plant response rating (bamyardgrass; [14]) | Barnyardgrass plant response rating (bamyardgrass; Rate 2000 g/ha, Pre-emergence (as headed), scale 0 to 10, 0 no effect, 10 complete control) | Giant foxtail plant response rating (giant foxtail; [1]) | Giant foxtail plant response rating (giant foxtail; [2]) | Giant foxtail plant response rating (0 to 10 scale) (giant foxtail; [3]) | Giant foxtail plant response rating (giant foxtail; [4]) | Giant foxtail plant response rating (giant foxtail; [5]) | Plant response rating, Giant foxtail (giant foxtail; [6]) | Giant foxtail plant response rating (giant foxtail; [7]) | B. signalgrass plant response rating (surinam grass; [17]) | B. signalgrass plant response rating (surinam grass; [1]) | B. signalgrass plant response rating (surinam grass; [2]) | B. signalgrass plant response rating (0 to 10 scale) (surinam grass; [3]) | B. signalgrass plant response rating (surinam grass; [16]) | B. signalgrass plant response rating (surinam grass; [4]) | Plant response rating, B. signalgrass (surinam grass; [6]) | B. signalgrass plant response rating (surinam grass; Rate 500 g/ha, Postemergence, scale of 0 to 10 where 0 is no effect and 10 is complete control) | Nutsedge plant response rating (purple nutsedge; [1]) | Nutsedge plant response rating (purple nutsedge; [2]) | Nutsedge plant response rating (0 to 10 scale) (purple nutsedge; [3]) | Nutsedge plant response rating (purple nutsedge; [16]) | Nutsedge plant response rating (purple nutsedge; [4]) | Nutsedge plant response rating (purple nutsedge; [5]) | Plant response rating, Nutsedge (purple nutsedge; [6]) | Nutsedge plant response rating (purple nutsedge; [7]) | Bedstraw plant response rating (bedstraw; [2]) | Bedstraw plant response rating (0 to 10 scale) (bedstraw; [3]) | Bedstraw plant response rating (bedstraw; [16]) | Bedstraw plant response rating (bedstraw; [4]) | Bedstraw plant response rating (bedstraw; Rate 500 g/ha, Postemergence, scale 0 to 10, 0 no effect, 10 complete control) | Corn plant response rating (corn; [1]) | Corn plant response rating (corn; [2]) | Corn plant response rating (0 to 10 scale) (corn; [3]) | Corn plant response rating (corn; [16]) | Corn plant response rating (corn; [4]) | Corn plant response rating (corn; [5]) | Plant response rating, Corn (corn; [6]) | Corn plant response rating (corn; [7]) | Sugarbeets plant response rating (sugar beet; [1]) | Sugarbeets plant response rating (sugar beet; [2]) | Sugarbeets plant response rating (0 to 10 scale) (sugar beet; [3]) | Sugarbeets plant response rating (sugar beet; [16]) | Sugarbeets plant response rating (sugar beet; [4]) | Sugarbeets plant response rating (sugar beet; [5]) | Plant response rating, Sugarbeets (sugar beet; [6]) | Sugarbeets plant response rating (sugar beet; [7]) | Redroot pigweed plant response rating (pigweed; [1]) | Redroot pigweed plant response rating (pigweed; [2]) | Redroot pigweed plant response rating (0 to 10 scale) (pigweed; [3]) | Redroot pigweed plant response rating (pigweed; [16]) | Redroot pigweed plant response rating (pigweed; [4]) | Redroot pigweed plant response rating (pigweed; [5]) | Plant response rating, Redroot pigweed (pigweed; [6]) | Redroot pigweed plant response rating (pigweed; [7]) | Rape plant response rating (rape; [1]) | Rape plant response rating (rape; [2]) | Rape plant response rating (0 to 10 scale) (rape; [3]) | Rape plant response rating (rape; [16]) | Rape plant response rating (rape; [4]) | Rape plant response rating (rape; [5]) | Plant response rating, Rape (rape; [6]) | Rape plant response rating (rape; [7]) | S. Flatsedge plant response rating (smallflower flatsedge; [8]) | S. Flatsedge plant response rating (smallflower flatsedge; Pre-emergence, Rate 1000 g/ha, scale 0 to 10 (0 no effect, 10 complete control)) | S. Flatsedge plant response rating (smallflower flatsedge; [9]) | Plant response rating, S. Flatsedge (smallflower flatsedge; [10]) | S. Flatsedge plant response rating (smallflower flatsedge; [11]) | Plant response rating, S. Flatsedge (smallflower flatsedge; [12]) | S. Flatsedge plant response rating (smallflower flatsedge; [13]) | S. Flatsedge plant response rating (smallflower flatsedge; [15]) | Rice plant response rating (rice; [8]) | Rice plant response rating (rice; [9]) | Plant response rating, Rice (rice; [10]) | Rice plant response rating (rice; [11]) | Plant response rating, Rice (rice; [12]) | Rice plant response rating (rice; [13]) | Rice plant response rating (rice; [14]) | Rice plant response rating (rice; [15]) | Morningglory plant response rating (morningglory; [1]) | Morningglory plant response rating (morningglory; [2]) | Morningglory plant response rating (0 to 10 scale) (morningglory; [3]) | Morningglory plant response rating (morningglory; [16]) | Morningglory plant response rating (morningglory; [4]) | Morningglory plant response rating (morningglory; [5])
